From US20090069302A1 (SMITHKLINE BEECHAM CORPORATION, priority 2006, published 2009)

How the values were obtained:
[1] = tested on: GK rats; test: Sixteen day chronic intracolonic dosing study in GK rats (insulin, glucose, glucagon); format: in vivo, rat; settings: 0.3 mg/kg QD intracolonic
Source text: (§1) The results are listed in Tables 4a and 4b, and graphically represented in FIGS. 3a and 3b, respectively.

[2] = target: T1, AXOR109 (Homo sapiens, UniProt Q8TDU6); test: Human AXOR109/Melanophore Assay; format: cell-based; settings: melanophore assay
T1 construct: expressed in transfected cells; host or cells: melanophore cells, transfected by electroporation
T1 sequence (Q8TDU6 1-330): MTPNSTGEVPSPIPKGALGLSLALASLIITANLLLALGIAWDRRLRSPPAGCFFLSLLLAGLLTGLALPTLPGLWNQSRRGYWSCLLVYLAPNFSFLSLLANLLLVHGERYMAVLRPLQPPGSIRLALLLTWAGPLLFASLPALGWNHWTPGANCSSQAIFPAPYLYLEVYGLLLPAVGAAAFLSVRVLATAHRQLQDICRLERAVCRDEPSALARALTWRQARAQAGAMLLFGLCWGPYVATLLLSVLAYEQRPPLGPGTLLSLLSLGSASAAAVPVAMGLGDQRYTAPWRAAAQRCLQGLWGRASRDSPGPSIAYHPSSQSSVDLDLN
Summary of the method: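 Readout is melanosome dispersion in melanophores electroporated with human AXOR109, in buffer containing 10 nM melatonin and 1% DMSO. Transmittance was read before and after 1 h compound exposure across 11-point 3-fold dilutions. Response was normalized to 200 nM alpha-MSH as system max, and pEC50 was obtained from a Hill fit.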

[3] = tested on: CD rats; test: Effect on GLP-1 secretion in CD rats, intracolonic injection; format: in vivo, rat; settings: anesthetized CD rats, 2.5 mg intracolonic
Method: Twelve ten week old (six per group) anesthetized normal CD rats were dosed with vehicle (0.5% HPMC/0.1% Tween80) or 2.5 mg Example 9 through intracolonic injection at 0 time point after a control blood sample was collected. Blood samples were collected at 5, 15, 30 and 60 minutes after dosing. Plasma active, and […] total GLP-1 were measured (ELISA kits, LINCO), and values were converted to % of controls. […] The results are listed in Tables 2a and 2b, and graphically represented in FIGS. 1a and 1b, respectively.

[4] = tested on: GK rats; test: Glucose tolerance test in the chronic study in GK rats; format: in vivo, rat; settings: treated versus vehicle group, in words
[5] = tested on: GK rats; test: as above; format: in vivo, rat; set-up: glucose in glucose tolerance test: unit not given here; settings: for glucose in glucose tolerance test: 0.3 mg/kg
Method: as §1
In the same chronic study in GK rats as in Tables 4a and 4b, an intravenous glucose tolerance test was performed on days 1, 3, 9, and 16.

[6] = 0 min (control sample before dosing)

## COc1ccc(S(=O)(=O)N2CCCN(S(=O)(=O)c3ccc(OC)c(OC)c3)CC2)cc1OC [Example 9, 1,4-bis{[3,4-bis(methyloxy)phenyl]sulfonyl}hexahydro-1H-1,4-diazepine]
[1]; day 3
  glucagon (pM): 21.31 pM
  glucose: 144.20 mg/dL
  insulin (pM): 223.24 pM
[1]; day 3 and day 9, in words
  insulin levels: normal insulin levels
[1]; day 9
  glucagon (pM): 21.67 pM
  glucose: 131.00 mg/dL
  insulin (pM): 240.29 pM
[1]; day 16
  glucagon (pM): 24.67 pM
  glucose: 169.00 mg/dL
  insulin (pM): 108.09 pM
[1]; day 16, in words
  glucagon levels: no increase in glucagons
[1]; pre dose
  glucagon (pM): 31.28 pM
  glucose: 107.17 mg/dL
  insulin (pM): 269.67 pM
[1]; sixteen days, in words
  development of hyperglycemia compared with vehicle: no hyperglycemia had developed
[2]; 1 h, normalized to alpha-MSH system max
  Emax: 51 to 75%
[2]; AXOR109 transfected melanophores
  EC50: 126 to 1000 nM
[3]; [6]
  Portal Vein Active GLP-1 Levels (% of Controls): 100.00 % of Controls
  Portal Vein Total GLP-1 Levels (% of Controls): 100.00 % of Controls
[3]; 5 min
  Portal Vein Active GLP-1 Levels (% of Controls): 175.27 % of Controls
  Portal Vein Total GLP-1 Levels (% of Controls): 182.84 % of Controls
[3]; 15 min
  Portal Vein Active GLP-1 Levels (% of Controls): 352.50 % of Controls
  Portal Vein Total GLP-1 Levels (% of Controls): 308.38 % of Controls
[3]; 30 min
  Portal Vein Active GLP-1 Levels (% of Controls): 298.49 % of Controls
  Portal Vein Total GLP-1 Levels (% of Controls): 263.34 % of Controls
[3]; 60 min
  Portal Vein Active GLP-1 Levels (% of Controls): 286.95 % of Controls
  Portal Vein Total GLP-1 Levels (% of Controls): 246.00 % of Controls
[3]; in words
  active and total GLP-1 level compared to controls: higher level of active and total GLP-1
[4]
  Glucose excretion during the oral glucose tolerance test: less in the treated group as compared to the vehicle group
[5]; day 1, 0.00 min
  glucose in glucose tolerance test: 103.67
[5]; day 1, 5.00 min
  glucose in glucose tolerance test: 257.17
[5]; day 1, 15.00 min
  glucose in glucose tolerance test: 195.67
[5]; day 1, 30.00 min
  glucose in glucose tolerance test: 149.50
[5]; day 1, 60.00 min
  glucose in glucose tolerance test: 126.83
[5]; day 1, 90.00 min
  glucose in glucose tolerance test: 158.00
[5]; day 1, 120.00 min
  glucose in glucose tolerance test: 173.50
[5]; day 1, −20.00 min
  glucose in glucose tolerance test: 107.17
[5]; day 3, 0.00 min
  glucose in glucose tolerance test: 123.00
[5]; day 3, 5.00 min
  glucose in glucose tolerance test: 307.40
[5]; day 3, 15.00 min
  glucose in glucose tolerance test: 254.80
[5]; day 3, 30.00 min
  glucose in glucose tolerance test: 182.20
[5]; day 3, 60.00 min
  glucose in glucose tolerance test: 143.60
[5]; day 3, 90.00 min
  glucose in glucose tolerance test: 140.60
[5]; day 3, 120.00 min
  glucose in glucose tolerance test: 137.60
[5]; day 3, −20.00 min
  glucose in glucose tolerance test: 144.20
[5]; day 9, 0.00 min
  glucose in glucose tolerance test: 129.00
[5]; day 9, 5.00 min
  glucose in glucose tolerance test: 278.80
[5]; day 9, 15.00 min
  glucose in glucose tolerance test: 252.40
[5]; day 9, 30.00 min
  glucose in glucose tolerance test: 154.80
[5]; day 9, 60.00 min
  glucose in glucose tolerance test: 116.20
[5]; day 9, 90.00 min
  glucose in glucose tolerance test: 115.00
[5]; day 9, 120.00 min
  glucose in glucose tolerance test: 88.60
[5]; day 9, −20.00 min
  glucose in glucose tolerance test: 131.00
[5]; day 16, 0.00 min
  glucose in glucose tolerance test: 174.20
[5]; day 16, 5.00 min
  glucose in glucose tolerance test: 275.20
[5]; day 16, 15.00 min
  glucose in glucose tolerance test: 245.80
[5]; day 16, 30.00 min
  glucose in glucose tolerance test: 238.80
[5]; day 16, 60.00 min
  glucose in glucose tolerance test: 215.40
[5]; day 16, 90.00 min
  glucose in glucose tolerance test: 217.60
[5]; day 16, 120.00 min
  glucose in glucose tolerance test: 212.60
[5]; day 16, −20.00 min
  glucose in glucose tolerance test: 169.00
[5]; chronic study, day 16, in words
  development of hyperglycemia on day 16: hyperglycemia had developed in rats receiving vehicle, but not in the rats treated with Example 9
